In article PMC10082216 (Nature Communications, 2023):
Where two headings read alike, the source gives them in different places.

Assays:
[1] = test system: female gametocytes; test: 384-well microsphiltration readout 2 (anti-pfs25): retention of female gametocytes; type: cell-based; details: Plasmodium falciparum, read-out: IC50 during the screening campaign, only females stained
Experimental: Large scale microsphiltration was performed as previously described. Briefly, microsphiltration plates were prepared using a Biomek NX workstation (Beckman, cat. no. 989402) to load 15 μl of 25–45μm microspheres then 10 μl of a mixture of 30% 5–15μm and 70% (w/w) 15–25μm microspheres. The 384-well filter plates were then stored at -20 °C until use. In some of the 384-well microsphiltration plates leakage of microspheres occurred in one or more wells. The wells with leakages were sealed. Plates displaying more than 5 sealed wells were not used. Imaging plates were prepared by loading 30 μL of staining solution in each well of a collagen-coated plate. A different staining solution was used for each readout (1 and 2). Readout 1 counted both male and female gametocytes, using nucleic acid (Syto40, Thermo Fisher cat. no. S11351) and viability (MitoTracker Deep Red, Thermo Fisher cat. no. M22426) staining, and total RBCs using a cell membrane stain (CellMask Orange, Thermo Fisher cat. no. C10045). Readout 2 selectively quantified the retention and killing of female gametocytes. […] Imaging plates were incubated overnight at room temperature, then read in an OperaPhenix high-content confocal imaging system (Perkin Elmer, Waltham, MA, USA) and analyzed with Harmony high-content analysis software v. […]

[2] = Population PK modeling and simulation of TD-6450 (NONMEM); set-up: species or system human
Excerpt: Data were pooled from two healthy volunteer studies, one single ascending dose (SAD) and the other multiple ascending dose (MAD). Observed concentration data were transformed into their natural logarithms and evaluated using nonlinear mixed-effects modeling in NONMEM v7.4 (Icon Development Solution, Ellicott City, MD). Pirana v3.0, Perl-speaks-NONMEM (PsN) v4.8.1, and Xpose version 4.7.1, were used for automation, model evaluation, and diagnostics during the model building process.
Different structural distribution models were evaluated (1-, 2-, and 3-compartment models) as well as different absorption models (first-order absorption and transit-compartment (n = 1–10) models). Relative bioavailability was fixed to unity for the population to evaluate inter-individual variability and the influence of covariates in the same parameter. […] Other biologically plausible covariate-parameter relationships (i.e. sex and age on all parameters, dose amount and duration of treatment on elimination clearance, absorption rate and relative bioavailability, concomitant food intake on absorption rate and relative bioavailability, and creatinine clearance on elimination clearance) were evaluated with a stepwise addition (p < 0.05) and elimination (p < 0.001) approach. All significant covariates in the forward step were evaluated with both linear and nonlinear functions, and the best-performing model was retained for the backward elimination step. Pharmacokinetic parameters were assumed to be log-normally distributed, and inter-individual variability (IIV) and inter-occasion variability (IOV) were implemented as exponential functions. Estimated IIV below 10% was removed in the final model, and IOV was estimated only on absorption parameters.
Model fit was evaluated primarily by the objective function value (OFV; calculated by NONMEM as proportional to −2 × log-likelihood of the data). Model discrimination between two hierarchical models was determined by a likelihood ratio test, based on the Chi-square distribution of the OFV (i.e. p-value < 0.05 corresponding to ΔOFV > 3.84, at a 1 degree of freedom difference). Goodness-of-fit was used to evaluate the descriptive performances of developed models. Prediction- and variability-corrected visual predictive checks (pvcVPC, n = 2000 simulations) were used to assess the predictive performance of developed models.

[3] = test system: F32-TEM P. falciparum strain; test: Resistance selection by TD-6450 drug pulses, dose-response on F32-TEM; type: cell-based, Plasmodium falciparum; details: for Parental strain 1 (viability) / Parental strain 2 (viability) / Parental strain 3 (viability): No drug pulses; for IC50: Plasmodium falciparum
Experimental: To assess the ability of P. falciparum to develop resistance against TD-6450, we exposed F32-TEM line parasites, a reference artemisinin-sensitive P. falciparum strain[45], to the drug at 3 µM concentration for three days. We confirmed the absence of parasites on Giemsa-stained smears following exposure, then checked daily for parasite re-appearance in a drug-free culture flask.

[4] = random effect, variance estimate
[5] = residual error, variance estimate
[6] = typical individual 80 kg, steady-state, high oral dose, fasting

For `CNC(=O)N1C[C@@H](C)N(c2ccc(C(=O)Nc3ccc(-c4ccc(-c5c[nH]c([C@@H]6CCCN6C(=O)[C@@H](NC(=O)OC)C(C)C)n5)cc4)c(OC(F)(F)F)c3)cn2)C[C@@H]1C` [TD-6450], the IC50 [1] was 2030 ± 350 nM, the “decrease in relative bioavailability per 100 mg increase in dose” value ([2]; above 240 mg (240 to 500 mg)) was 24.7% and the “Dose on CL/F, population estimate (%RSE)” value ([2]; covariate relationship) was 1.35 (17.9). For the same compound, the “Dose on F, SIR median (95%CI)” value ([2]; covariate relationship) was -0.241 (-0.207 to -0.284), the “Dose on F, population estimate (%RSE)” value ([2]; covariate relationship) was -0.247 (7.92) and the “Food on F, SIR median (95%CI)” value ([2]; covariate relationship) was 0.683 (0.475 to 0.885). The “Food on F, population estimate (%RSE)” value ([2]; covariate relationship) was 0.685 (15.0), the “Food on MTT, SIR median (95%CI)” value ([2]; covariate relationship) was 0.927 (0.696 to 1.19) and the “Food on MTT, population estimate (%RSE)” value ([2]; covariate relationship) was 0.933 (10.3). The “Time dep. F, SIR median (95%CI)” value ([2]; covariate relationship) was 0.441 (0.355 to 0.569), the “Time dep. F, population estimate (%RSE)” value ([2]; covariate relationship) was 0.439 (12.5) and the “higher bioavailability when administered with food” value ([2]; food covariate) was 68.5%. The “longer absorption time when administered with food” value ([2]; food covariate) was 93.3%, the “IIV CL/F, population estimate (%RSE)” value [2, 4] was 0.0148 (21.5) and the “IIV F, SIR median (95%CI)” value [2, 4] was 0.151 (0.110 to 0.207). The “IIV F, population estimate (%RSE)” value [2, 4] was 0.150 (16.7), the “IIV MTT, SIR median (95%CI)” value [2, 4] was 0.0683 (0.0551 to 0.0830) and the “IIV MTT, population estimate (%RSE)” value [2, 4] was 0.0683 (10.3). For the same compound, the “IIV Vc/F, SIR median (95%CI)” value [2, 4] was 0.0394 (0.0246 to 0.0514), the “IIV Vc/F, population estimate (%RSE)” value [2, 4] was 0.0391 (17.3) and the “IIV Vp/F, SIR median (95%CI)” value [2, 4] was 0.0719 (0.0568 to 0.0919). The “IIV Vp/F, population estimate (%RSE)” value [2, 4] was 0.0713 (12.9), the “IOV F, SIR median (95%CI)” value [2, 4] was 0.0622 (0.0445 to 0.0794) and the “IOV F, population estimate (%RSE)” value [2, 4] was 0.0631 (13.9). The “IOV MTT, SIR median (95%CI)” value [2, 4] was 0.0870 (0.0613 to 0.118), the “IOV MTT, population estimate (%RSE)” value [2, 4] was 0.0866 (17.1) and the “RUV, SIR median (95%CI)” value [2, 5] was 0.0568 (0.0520 to 0.0624). The “RUV, population estimate (%RSE)” value [2, 5] was 0.242 (4.48), the “CL/F, SIR median (95%CI)” value ([2]; sampling importance resampling) was 12.1 (10.8 to 13.6) L/h and the “MTT, SIR median (95%CI)” value ([2]; sampling importance resampling) was 2.30 (2.13 to 2.50) h. The “Q/F, SIR median (95%CI)” value ([2]; sampling importance resampling) was 28.5 (22.5 to 35.5) L/h, the “Vc/F, SIR median (95%CI)” value ([2]; sampling importance resampling) was 539 (464 to 626) L and the “Vp/F, SIR median (95%CI)” value ([2]; sampling importance resampling) was 445 (384 to 513) L. The “CL/F, population estimate (%RSE)” value [2, 6] was 12.1 (6.19) L/h, the “MTT, population estimate (%RSE)” value [2, 6] was 2.30 (4.14) h and the “Q/F, population estimate (%RSE)” value [2, 6] was 28.4 (11.4) L/h. The “Vc/F, population estimate (%RSE)” value [2, 6] was 537 (7.89) L, the “Vp/F, population estimate (%RSE)” value [2, 6] was 444 (7.36) L and the “Parental strain 1 (viability)” value ([3]; 5 µM) was 1.88. For the same compound, the “Parental strain 2 (viability)” value ([3]; 5 µM) was 1.225, the “Parental strain 3 (viability)” value ([3]; 5 µM) was 1.766 and the “Parental strain 1 (viability)” value ([3]; 10 µM) was 1.472. For the same compound, the “Parental strain 2 (viability)” value ([3]; 10 µM) was 0.6944, the “Parental strain 3 (viability)” value ([3]; 10 µM) was 1.083 and the “Parental strain 1 (viability)” value ([3]; 20 µM) was 1.826. For the same compound, the “Parental strain 2 (viability)” value ([3]; 20 µM) was 0.509, the “Parental strain 3 (viability)” value ([3]; 20 µM) was 0.9281 and the IC50 ([3]; F32, read-out: IC50, F32-TEM 5 pulses) was 700 nM. For the same compound, the IC50 ([3]; F32, read-out: IC50, F32-TEM 10 pulses) was 300 nM, the IC50 ([3]; F32, read-out: IC50, F32-TEM P.S.) was 200 nM and the “fold shift in IC50” value ([3]; after five drug-killing pulses (3 µM, three days)) was 3.5 fold. For the same compound, the “fold shift in IC50” value ([3]; after ten drug-killing pulses (3 µM, three days)) was 1.5 fold.
